Drawing on PubChem BioAssay (NCI), this text covers TGI and GI50 for nine molecules.

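Protocol summary: plate cells (96-well), add compound at 5 concentrations, incubate 48 h, interpolate endpoints linearly. The concentration for 50% growth inhibition is given as GI50. TGI denotes the concentration required for complete inhibition of growth.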

Among the test systems are NCI-H522 lung; SNB-75 CNS; OVCAR-3 ovarian; SF-295 CNS; U251 CNS; HCC-2998 colon; 786-0 renal; HT29 colon; NCI-H23 lung; MOLT-4 leukemia.
Common to all, as to assay: NCI tumour cell line growth inhibition, 48 h

For the molecule `N#CC1CCCCCCCCCCC(=O)N(CCCl)C1=O` (centres undefined), the TGI in the assay with NCI-H522 lung, with SNB-75 CNS, in the assay with OVCAR-3 ovarian, with SF-295 CNS, with U251 CNS and in the assay on HCC-2998 colon was greater than 100 µM throughout. In addition, the TGI in the assay on 786-0 renal, with HT29 colon, in the assay on NCI-H23 lung and with MOLT-4 leukemia was greater than 100 µM throughout.

As for `Cn1cc(C(=O)C[n+]2ccccc2)c2ccccc21`, the TGI with NCI-H522 lung, in the assay on SNB-75 CNS, in the assay with OVCAR-3 ovarian, in the assay on SF-295 CNS, with HCC-2998 colon and in the assay with 786-0 renal was greater than 100 µM each time. In addition, the TGI in the assay with HT29 colon, in the assay on NCI-H23 lung and in the assay on MOLT-4 leukemia was greater than 100 µM in each case.

Take `CCNC(=O)O[C@H]1CN[C@H](C#Cc2cc3ncnc(Nc4ccc(OCc5cccc(F)c5)c(Cl)c4)c3s2)C1`: the GI50 is 0.371 µM in the assay on NCI-H522 lung; 4.76 µM in the assay on SNB-75 CNS; 3.77 µM in the assay on OVCAR-3 ovarian; 8.13 µM in the assay on SF-295 CNS; 9.24 µM in the assay with U251 CNS; 4.91 µM with HCC-2998 colon. The GI50 with 786-0 renal is 5.69 µM; in the assay with HT29 colon, 9.47 µM; in the assay on NCI-H23 lung it was 9.13 µM; with MOLT-4 leukemia, 4.58 µM. Further, the TGI was 5.91 µM in the assay on NCI-H522 lung; greater than 25 µM in the assay on SNB-75 CNS; 16.7 µM in the assay on OVCAR-3 ovarian; greater than 25 µM in the assay on SF-295 CNS; greater than 25 µM in the assay on U251 CNS; 15.5 µM in the assay with HCC-2998 colon. Moreover, the TGI was greater than 16.6 µM with 786-0 renal, greater than 25 µM in the assay on HT29 colon, greater than 25 µM in the assay with NCI-H23 lung and greater than 25 µM with MOLT-4 leukemia.

Take `Cc1cccc(C)c1NC(=O)C(=O)Nn1c(NN)nc2ccccc2c1=O`: the TGI with NCI-H522 lung, with SNB-75 CNS, with OVCAR-3 ovarian, in the assay with SF-295 CNS, with U251 CNS and with HCC-2998 colon was greater than 100 µM throughout. Moreover, the TGI in the assay on 786-0 renal, in the assay on HT29 colon, with NCI-H23 lung and in the assay with MOLT-4 leukemia was greater than 100 µM in each case.

As to `COc1cc(C2CC(c3ccc(Nc4ccnc5cc(Cl)ccc45)cc3)=NN2c2ccc(Cl)cc2)cc(OC)c1OC` (centres undefined), the GI50 with NCI-H522 lung was 1.85 µM; in the assay on SNB-75 CNS, 1.11 µM; in the assay on OVCAR-3 ovarian, 1.87 µM; in the assay with SF-295 CNS, 2.02 µM; in the assay with U251 CNS, 2.91 µM; with HCC-2998 colon, 2.09 µM. Further, the GI50 in the assay with 786-0 renal is 2.88 µM; in the assay on HT29 colon, 2.66 µM; with NCI-H23 lung it was 8.82 µM; in the assay on MOLT-4 leukemia, 3.86 µM. Further, the TGI with NCI-H522 lung is 50.2 µM; in the assay on SNB-75 CNS, 6.68 µM; in the assay with OVCAR-3 ovarian, greater than 100 µM; in the assay with SF-295 CNS, 8.32 µM; with U251 CNS, greater than 100 µM; in the assay with HCC-2998 colon, 8.03 µM. In addition, the TGI with 786-0 renal, in the assay with HT29 colon, with NCI-H23 lung and in the assay on MOLT-4 leukemia was greater than 100 µM throughout.

On to `N#CC1(C#N)C(C#N)(C#N)C12CCCCCC2`, for which the TGI with NCI-H522 lung was 7.88 µM; in the assay on SNB-75 CNS it was greater than 55.3 µM; with OVCAR-3 ovarian it was 29.7 µM; with SF-295 CNS, greater than 57.2 µM; with U251 CNS, 20.5 µM; with HCC-2998 colon, 35.3 µM. In addition, the TGI turned out to be 14.3 µM with 786-0 renal, 34.6 µM in the assay with HT29 colon, 31.3 µM in the assay with NCI-H23 lung and 19.5 µM in the assay on MOLT-4 leukemia.

Take `CC(=O)OCC1OC(n2c(-c3ccc(C)cc3)cc(-c3ccccc3)c(C#N)c2=O)C(OC(C)=O)C(OC(C)=O)C1OC(C)=O` (centres undefined): the TGI with NCI-H522 lung, in the assay on SNB-75 CNS, with OVCAR-3 ovarian, with U251 CNS, with HCC-2998 colon and in the assay with 786-0 renal was greater than 100 µM in each case. Moreover, the TGI in the assay with HT29 colon, with NCI-H23 lung and in the assay with MOLT-4 leukemia was greater than 100 µM each time.

Regarding `CCOc1ccc2nc(NC(=O)C(=O)C(c3cnc4ccccc4n3)[N+](=O)[O-])sc2c1` (centres undefined), the TGI in the assay with NCI-H522 lung, in the assay with SNB-75 CNS, with OVCAR-3 ovarian, with SF-295 CNS, in the assay with HCC-2998 colon and in the assay with 786-0 renal was greater than 100 µM throughout. Moreover, the TGI in the assay on HT29 colon, in the assay with NCI-H23 lung and in the assay with MOLT-4 leukemia was greater than 100 µM each time.

As to `N#C/C(=C\c1ccc(Br)cc1)n1nnc2ccc(F)cc21`, the GI50 was 0.227 µM with NCI-H522 lung; 0.373 µM in the assay with OVCAR-3 ovarian; 2.11 µM in the assay with SF-295 CNS; 1.64 µM with U251 CNS; 1.43 µM with HCC-2998 colon; 0.846 µM with 786-0 renal. In addition, the GI50 with NCI-H23 lung was 1.42 µM; in the assay on MOLT-4 leukemia, 2.18 µM. For the same molecule, the TGI turned out to be 0.858 µM with NCI-H522 lung; 2.24 µM with SNB-75 CNS; 1.49 µM in the assay on OVCAR-3 ovarian; 5.07 µM in the assay on SF-295 CNS; 3.34 µM in the assay on U251 CNS; 2.89 µM with HCC-2998 colon. Moreover, the TGI with 786-0 renal was 2.6 µM; in the assay on NCI-H23 lung, 3.34 µM; with MOLT-4 leukemia it was greater than 100 µM.
